Measurements taken from patent US12624024B2, “EP2 antagonist compounds” (Reservoir Neuroscience, Inc., priority 2021, dated 2026).

Each compound was assayed against T1, EP2 receptor (Homo sapiens, UniProt P43116) (assay: EP2 Potency Assay (cAMP TR-FRET, CHO-K1 cells transfected with EP2 receptor, PGE2 at EC80)). Conditions: CHO-K1 cells expressing EP2, prostaglandin E2 at EC80, read-out: EP2 Potency (IC50 category).
T1 construct: expressed in transfected cells; host or cells: CHO-K1 cells (ATCC), transient transfection with FuGENE 6
T1 sequence (P43116 whole entry): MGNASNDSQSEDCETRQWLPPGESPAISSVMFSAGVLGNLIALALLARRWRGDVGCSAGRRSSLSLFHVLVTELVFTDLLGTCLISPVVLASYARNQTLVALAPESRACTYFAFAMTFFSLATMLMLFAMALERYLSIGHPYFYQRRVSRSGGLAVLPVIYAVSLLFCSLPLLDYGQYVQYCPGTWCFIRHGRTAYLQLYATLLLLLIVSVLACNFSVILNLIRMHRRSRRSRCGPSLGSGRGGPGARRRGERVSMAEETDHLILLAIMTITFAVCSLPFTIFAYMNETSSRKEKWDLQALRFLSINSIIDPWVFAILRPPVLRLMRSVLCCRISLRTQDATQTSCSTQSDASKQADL
Assay type: cell-based
Procedure: Compound potency was measured using a cAMP TR-FRET assay.
After 6 hours incubation, the cell media was replaced with F12 medium supplemented with 10% FBS and 100 U/ml Pen-Strep. 24 hours after transfection, cells were harvested and seeded at a density of 3000 cells/well in a 384 well plate to perform the cAMP assay, using the LANCE Ultra cAMP assay kit (PerkinElmer).
Plates were then centrifuged at 1000 rpm for 1 min, agitated at 600 rpm at R.T. for 2 min, and incubated at 25° C. for 5 min. The reference agonist, prostaglandin E2 (MCE), was added to each well at the appropriate concentration to reach its EC80 value. Plates were then centrifuged at 1000 rpm for 1 min, agitated at 600 rpm at R.T. for 2 min, and incubated at 25° C. for 30 min.
A dose-response curve was prepared by plotting percent inhibition for each compound concentration, and then IC50 was calculated by fitting a curve to the plotted values and extrapolating the IC50 concentration.
`O=c1ncc(CN2CCOc3c(Cl)cc(-n4ccc5cc(F)cnc54)cc3C2)c[nH]1` [Compound 70, 5-((9-chloro-7-(5-fluoro-1H-pyrrolo[2,3-b]pyridin-1-yl)-2,3-dihydrobenzo[f][1,4]oxazepin-4(5H)-yl)methyl)pyrimidin-2(1H)-one] gave an IC50 of 1 to 5 µM. `Fc1ccc2c(ccn2-c2cc(Cl)c3c(c2)CN(Cc2ccsn2)CCO3)c1` [Compound 97] was tested, and the IC50 was greater than 5 µM. Work on `CC(c1cc[nH]c(=O)c1)N1CCOc2c(Cl)cc(-n3ccc4cc(F)ccc43)cc2C1` (stereo not shown) [Compound 228] yielded an IC50 greater than 5 µM. `[2H]C1([2H])Oc2c(Cl)cc(-n3ccc4cc(F)ccc43)cc2CN(Cc2cc[nH]c(=O)c2)C1([2H])[2H]` [Compound 227] showed an IC50 of less than 0.1 µM. In the case of `COCC1COc2c(Cl)cc(-n3ccc4cc(F)ccc43)cc2CN1Cc1cc[nH]c(=O)c1` (stereo not shown) [Compound 239], the IC50 is reported as 1 to 5 µM. With `CNc1ncc(CN2CCOc3c(Cl)cc(-n4ccc5cc(F)ccc54)cc3C2)cn1` [Compound 147] the IC50 was 0.1 to 0.5 µM. With `COc1ncc(CN2CCOc3c(Cl)cc(-n4ccc5nc(Cl)ccc54)cc3C2)cn1` [Compound 38] the IC50 was 1 to 5 µM. In the case of `COc1ncc(CN2CCOc3c(Cl)cc(-n4c(C)cc5cc(F)ccc54)cc3C2)cn1` [Compound 30], the IC50 is reported as 1 to 5 µM. For `Fc1ccc2c(ccn2-c2cc(Cl)c3c(c2)CN(Cc2nncs2)CCO3)c1` [Compound 112], the IC50 was 1 to 5 µM. For `CN(C)C(=O)[C@H]1CC[C@H](CN2CCOc3c(Cl)cc(-n4ccc5cc(F)ccc54)cc3C2)CC1` [Compound 130], the IC50 was 1 to 5 µM. Compound `O=c1ncc(CN2CCOc3c(Cl)cc(-n4ccc5cnccc54)cc3C2)c[nH]1` [Compound 73] has an IC50 greater than 5 µM. `Nc1nccc(CN2CCOc3c(Cl)cc(-n4ccc5cc(F)ccc54)cc3C2)n1` [Compound 163, 4-{[9-chloro-7-(5-fluoroindol-1-yl)-3,5-dihydro-2H-1,4-benzoxazepin-4-yl]methyl}pyrimidin-2-amine] was tested, and the IC50 was 1 to 5 µM. `O=c1cc(CN2CCc3c(Cl)cc(-n4ccc5cc(F)ccc54)cc3C2)cc[nH]1` [Compound 240] showed an IC50 greater than 5 µM. With `Fc1ccc2c(ccn2-c2cc(Cl)c3c(c2)CN(Cc2ccoc2)CCO3)c1` [Compound 90] the IC50 was greater than 5 µM. `NC(=O)[C@H]1CC[C@@H](CN2CCOc3c(Cl)cc(-n4ccc5cc(F)ccc54)cc3C2)CC1` [Compound 125] gave an IC50 of 1 to 5 µM. In the case of `Fc1ccc2c(ccn2-c2cc(Cl)c3c(c2)CN(Cc2nn[nH]n2)CCO3)c1` [Compound 118, 9-chloro-7-(5-fluoroindol-1-yl)-4-(2H-1,2,3,4-tetrazol-5-ylmethyl)-3,5-dihydro-2H-1,4-benzoxazepine], the IC50 is reported as greater than 5 µM. For `CN(C)c1cc(CN2CCOc3c(Cl)cc(-n4ccc5cc(F)ccc54)cc3C2)ccn1` [Compound 181, 4-{[9-chloro-7-(5-fluoroindol-1-yl)-3,5-dihydro-2H-1,4-benzoxazepin-4-yl]methyl}-N,N-dimethylpyridin-2-amine], the IC50 was 1 to 5 µM. Compound `Fc1ccc2c(ccn2-c2cc(Cl)c3c(c2)CN(Cc2nnc[nH]2)CCO3)c1` [Compound 109, 9-chloro-7-(5-fluoroindol-1-yl)-4-(4H-1,2,4-triazol-3-ylmethyl)-3,5-dihydro-2H-1,4-benzoxazepine] has an IC50 greater than 5 µM. For `Oc1ncc(CN2CCOc3c(Cl)cc(-n4ccc5cc(F)ccc54)cc3C2)c(Cl)n1` [Compound 158, 4-chloro-5-{[9-chloro-7-(5-fluoroindol-1-yl)-3,5-dihydro-2H-1,4-benzoxazepin-4-yl]methyl}-3H-pyrimidin-2-one], the IC50 was 1 to 5 µM. `COc1ncc(CN2CCOc3c(Cl)cc(-n4ccc5cc(Cl)ccc54)cc3C2)cn1` [Compound 20] gave an IC50 of 0.5 to 1 µM. Compound `Oc1ccc(CN2CCOc3c(Cl)cc(-n4ccc5cc(F)ccc54)cc3C2)cc1` [Compound 121] has an IC50 greater than 5 µM. For `COc1cc(C(C)N2CCOc3c(Cl)cc(-n4ccc5cc(F)ccc54)cc3C2)ccn1` (racemic) [Compound 217, 9-chloro-7-(5-fluoroindol-1-yl)-4-[1-(2-methoxypyridin-4-yl)ethyl]-3,5-dihydro-2H-1,4-benzoxazepine], the IC50 was greater than 5 µM.
